# According to PubChem BioAssay AID330 (DTP/NCI, 2004):
# Where “and” joins values, the source holds several entries; their conditions need not be identical. Identical values can stand only once. Inconclusive results and toxic doses are left out. Square brackets hold non-standard residues; d marks the D form. Peptide text beside a SMILES is read from it. * marks the point of attachment. ξ: configuration not given here. Cbz = O=C(OCc1ccccc1)*; ξV = CC(C)C(N)C(=O)O; Sar = CNCC(=O)O
# System: P388 leukemia ip, CD2F1 mice, survival T/C
# Experiment: NCI In Vivo Anticancer Drug Screen. Data for tumor model P388 Leukemia (intraperitoneal) in CD2F1 (CDF1) mice
# Conditions: endpoint: median survival time, higher = longer survival
# Method in brief: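 Mice carrying the transplanted tumor received test compound or vehicle. Survival was recorded in each group, and the value is the treated-group measurement divided by that of the vehicle-treated control group.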
# [1] = dose: 12.5 mg/kg/injection, schedule: Q01DX009 (ip), vehicle: saline
# [2] = dose: 25.0 mg/kg/injection, schedule: Q01DX009 (ip), vehicle: saline
# [3] = dose: 50.0 mg/kg/injection, schedule: Q01DX009 (ip), vehicle: saline with Tween-80
# [4] = dose: 50.0 mg/kg/injection, schedule: Q01DX009 (ip), vehicle: saline
# [5] = dose: 100.0 mg/kg/injection, schedule: Q04DX003 (ip), vehicle: Klucel (hydroxypropylcellulose) (HPC)
# [6] = dose: 200.0 mg/kg/injection, schedule: Q04DX003 (ip), vehicle: Klucel (hydroxypropylcellulose) (HPC)
# [7] = dose: 400.0 mg/kg/injection, schedule: Q04DX003 (ip), vehicle: Klucel (hydroxypropylcellulose) (HPC)
# [8] = dose: 25.0 mg/kg/injection, schedule: Q01DX009 (ip), vehicle: saline with Tween-80
# [9] = dose: 100.0 mg/kg/injection, schedule: Q01DX009 (ip), vehicle: saline with Tween-80
# [10] = dose: 25.0 mg/kg/injection, schedule: Q01DX005 (ip), vehicle: saline with Tween-80
# [11] = dose: 50.0 mg/kg/injection, schedule: Q01DX005 (ip), vehicle: saline with Tween-80
# [12] = dose: 50.0 mg/kg/injection, schedule: Q01DX005 (ip), vehicle: Klucel (hydroxypropylcellulose) (HPC)
# [13] = dose: 100.0 mg/kg/injection, schedule: Q01DX005 (ip), vehicle: Klucel (hydroxypropylcellulose) (HPC)
# [14] = dose: 60.0 mg/kg/injection, schedule: Q01DX005 (ip), vehicle: saline with Tween-80
# [15] = dose: 120.0 mg/kg/injection, schedule: Q01DX005 (ip), vehicle: saline with Tween-80
# [16] = dose: 240.0 mg/kg/injection, schedule: Q01DX005 (ip), vehicle: saline with Tween-80
# [17] = dose: 100.0 mg/kg/injection, schedule: Q01DX005 (ip), vehicle: saline with Tween-80
# [18] = dose: 200.0 mg/kg/injection, schedule: Q01DX005 (ip), vehicle: saline with Tween-80
# [19] = dose: 200.0 mg/kg/injection, schedule: Q01DX009 (ip), vehicle: saline with Tween-80
# [20] = dose: 12.5 mg/kg/injection, schedule: Q01DX009 (ip), vehicle: saline with Tween-80
structure (smiles),measurement,setting,value
O=S(=O)(N/N=C/c1ccncc1)c1ccccc1,T/C,"dose: 12.5 mg/kg/injection, schedule: Q01DX009 (ip), vehicle: other",110 % of control and 121 % of control
same,T/C,"dose: 25.0 mg/kg/injection, schedule: Q01DX009 (ip), vehicle: other",116 % of control
same,T/C,"dose: 100.0 mg/kg/injection, schedule: Q01DX009 (ip), vehicle: other",157 % of control
O=C1C=CC(=O)N1c1ccc(N2C(=O)C=CC2=O)cc1,T/C,"dose: 0.78 mg/kg/injection, schedule: Q01DX009 (ip), vehicle: distilled water + Tween-80",102 % of control and 115 % of control
same,T/C,"dose: 1.56 mg/kg/injection, schedule: Q01DX009 (ip), vehicle: distilled water + Tween-80",103 % of control and 120 % of control
same,T/C,"dose: 3.13 mg/kg/injection, schedule: Q01DX009 (ip), vehicle: distilled water + Tween-80",121 % of control and 97 % of control
same,T/C,"dose: 6.25 mg/kg/injection, schedule: Q01DX009 (ip), vehicle: distilled water + Tween-80",112 % of control and 118 % of control
same,T/C,"dose: 12.5 mg/kg/injection, schedule: Q01DX009 (ip), vehicle: distilled water + Tween-80",105 % of control
N#CC(C#N)C1C=C/C(=N\O)C1 (stereo not drawn),T/C,[1],99 % of control
same,T/C,[2],101 % of control
same,T/C,[3],109 % of control
same,T/C,[4],102 % of control
O=C1CCC(N(Cc2ccccc2)Cc2ccccc2)C(=O)O1 (stereo not drawn),T/C,[5],112 % of control
same,T/C,[6],109 % of control
same,T/C,[7],100 % of control
COC(=O)C1CCCC(Sc2ccccc2)C1=O (stereo not drawn),T/C,[8],101 % of control
same,T/C,[3],101 % of control
same,T/C,[9],109 % of control
C=CCCC/C=C/CN1CCOCC1,T/C,[4],103 % of control
same,T/C,"dose: 100.0 mg/kg/injection, schedule: Q01DX009 (ip), vehicle: saline",105 % of control
CCOC(=O)c1sc(=S)n(C)c1C,T/C,"dose: 12.5 mg/kg/injection, schedule: Q01DX005 (ip), vehicle: saline with Tween-80",100 % of control
same,T/C,[10],103 % of control
same,T/C,[11],102 % of control and 104 % of control
COC(=O)NC12CC3CC(C(C)O1)C2N(Cc1ccccc1)C3 (stereo not drawn),T/C,"dose: 25.0 mg/kg/injection, schedule: Q01DX005 (ip), vehicle: Klucel (hydroxypropylcellulose) (HPC)",100 % of control
same,T/C,[12],93 % of control
same,T/C,[13],94 % of control
NC(=O)C12CCCCC1CCC(=O)C2 (stereo not drawn),T/C,"dose: 2.5 mg/kg/injection, schedule: Q01DX009 (ip), vehicle: saline",100 % of control
same,T/C,"dose: 5.0 mg/kg/injection, schedule: Q01DX009 (ip), vehicle: saline",100 % of control
same,T/C,"dose: 10.0 mg/kg/injection, schedule: Q01DX009 (ip), vehicle: saline",100 % of control
CC1S(=O)(=O)O[Si](C)(C)CC[Si](C)(C)OS1(=O)=O,T/C,[12],105 % of control
same,T/C,[13],100 % of control
same,T/C,"dose: 200.0 mg/kg/injection, schedule: Q01DX005 (ip), vehicle: Klucel (hydroxypropylcellulose) (HPC)",102 % of control
COC(=O)c1c[nH]c(=O)[nH]c1=O,T/C,[14],94 % of control
same,T/C,[15],105 % of control
same,T/C,[16],112 % of control
Cc1ccc(C2OC2(C(=O)C=[N+]=[N-])c2ccccc2)cc1 (stereo not drawn),T/C,[10],89 % of control
same,T/C,[11],92 % of control
same,T/C,[17],86 % of control
same,T/C,[18],91 % of control
CCOC(=O)c1cc(-c2ccc(Cl)cc2)nc2c(Cl)cc(Cl)cc12,T/C,[9],93 % of control
same,T/C,[19],94 % of control
same,T/C,"dose: 400.0 mg/kg/injection, schedule: Q01DX009 (ip), vehicle: saline with Tween-80",88 % of control
Cc1cccc(C)c1N=CNc1c(C)cccc1C.[Cu+2],T/C,[8],101 % of control and 103 % of control and 118 % of control
Cc1cc(OC(=O)Nc2ccc(Cl)c([N+](=O)[O-])c2)c(Cl)cc1Br,T/C,"dose: 50.0 mg/kg/injection, schedule: Q01DX009 (ip), vehicle: saline + alcohol",100 % of control
same,T/C,"dose: 100.0 mg/kg/injection, schedule: Q01DX009 (ip), vehicle: saline + alcohol",105 % of control
same,T/C,"dose: 200.0 mg/kg/injection, schedule: Q01DX009 (ip), vehicle: saline + alcohol",88 % of control
O=C(O)COc1ccc(F)c(F)c1,T/C,"dose: 60.0 mg/kg/injection, schedule: Q01DX005 (ip), vehicle: Klucel (hydroxypropylcellulose) (HPC)",101 % of control and 104 % of control
same,T/C,"dose: 120.0 mg/kg/injection, schedule: Q01DX005 (ip), vehicle: Klucel (hydroxypropylcellulose) (HPC)",106 % of control and 94 % of control
same,T/C,"dose: 240.0 mg/kg/injection, schedule: Q01DX005 (ip), vehicle: Klucel (hydroxypropylcellulose) (HPC)",100 % of control and 86 % of control
NC(=S)N/N=C1/CCCC/C1=N/O,T/C,[14],100 % of control
same,T/C,[15],100 % of control
O=C(CBr)Nc1c(Br)cc(Cl)cc1Br,T/C,[3],100 % of control
same,T/C,[9],88 % of control
same,T/C,[19],100 % of control
CC(C)(C)OC1CCC2=CC(=O)CCC21C (stereo not drawn),T/C,"dose: 100.0 mg/kg/injection, schedule: Q04DX002 (ip), vehicle: other",119 % of control
O=[N+]([O-])c1cc(Br)cc2c1[nH]c1nc3ccc(C(F)(F)F)cc3nc12,T/C,"dose: 100.0 mg/kg/injection, schedule: Q04DX003 (ip), vehicle: saline",91 % of control
same,T/C,"dose: 200.0 mg/kg/injection, schedule: Q04DX003 (ip), vehicle: saline",95 % of control
same,T/C,"dose: 400.0 mg/kg/injection, schedule: Q04DX003 (ip), vehicle: saline",94 % of control
[CH3][Sn]1([CH3])[O]P(=O)(c2ccccc2)[O]1,T/C,"dose: 6.25 mg/kg/injection, schedule: Q01DX009 (ip), vehicle: saline with Tween-80",99 % of control
same,T/C,"dose: 6.25 mg/kg/injection, schedule: Q01DX009 (ip), vehicle: saline",110 % of control
same,T/C,[20],96 % of control
same,T/C,[1],112 % of control
same,T/C,[8],107 % of control
same,T/C,[2],119 % of control
same,T/C,[3],105 % of control
same,T/C,[4],112 % of control and 120 % of control
CN1CC[C@]23c4c5ccc(O)c4OC2C(O)C=C[C@H]3[C@H]1C5 (stereo partly drawn),T/C,"dose: 100.0 mg/kg/injection, schedule: Q01DX001 (ip), vehicle: Klucel (hydroxypropylcellulose) (HPC)",103 % of control
same,T/C,"dose: 200.0 mg/kg/injection, schedule: Q01DX001 (ip), vehicle: Klucel (hydroxypropylcellulose) (HPC)",100 % of control
same,T/C,"dose: 400.0 mg/kg/injection, schedule: Q01DX001 (ip), vehicle: Klucel (hydroxypropylcellulose) (HPC)",110 % of control
N#Cc1cccc[n+]1Cc1ccc([N+](=O)[O-])cc1,T/C,[20],95 % of control
same,T/C,[8],109 % of control
same,T/C,[3],118 % of control
COc1ccc(N=N/N=c2\sc3cc(OC)ccc3n2C)cc1,T/C,"dose: 7.5 mg/kg/injection, schedule: Q01DX005 (ip), vehicle: saline with Tween-80",113 % of control
same,T/C,"dose: 15.0 mg/kg/injection, schedule: Q01DX005 (ip), vehicle: saline with Tween-80",104 % of control
same,T/C,"dose: 30.0 mg/kg/injection, schedule: Q01DX005 (ip), vehicle: saline with Tween-80",112 % of control and 117 % of control
same,T/C,[14],104 % of control
O=C1C=CC(=O)C(C2OC(=O)C(Cl)=C2Cl)=C1 (stereo not drawn),T/C,[11],110 % of control
same,T/C,[17],104 % of control
CC1=C2[C@H]3OC(=O)[C@@H](C)[C@@H]3CC[C@@]2(C)C=C/C1=N\O,T/C,[11],103 % of control
same,T/C,[17],95 % of control
same,T/C,[18],96 % of control
COC(=O)[C@@H]1CON(Cc2ccccc2)C1CC1(C)OCCO1 (stereo partly drawn),T/C,[14],103 % of control
same,T/C,[15],104 % of control
same,T/C,[16],109 % of control
C=COC(=O)CCCCCCCC,T/C,[5],103 % of control
same,T/C,[6],105 % of control
same,T/C,[7],95 % of control
CC(=O)OC1C(=O)C=C(C)OC1=O (stereo not drawn),T/C,[14],102 % of control
same,T/C,[15],99 % of control
same,T/C,[16],106 % of control
CON/C=C(C#N)/C=C/C=Nc1ccc(S(=O)(=O)Nc2onc(C)c2C)cc1,T/C,[3],100 % of control
same,T/C,[9],92 % of control
same,T/C,[19],98 % of control
CC(C)C(NC(=O)CN(C)C(=O)OCc1ccccc1)C(=O)O (stereo not drawn) (Cbz-[Sar]-[ξV]-OH),T/C,[11],100 % of control
same,T/C,[17],102 % of control
O=C(NC(=S)Nc1ncn[nH]1)c1ccc(Cl)c(Cl)c1,T/C,[20],104 % of control
same,T/C,[8],100 % of control
same,T/C,[3],95 % of control
same,T/C,[9],91 % of control
same,T/C,[19],92 % of control
N=c1nc(-c2ccccc2)nc2[nH]c3c4cccc5cccc(c3nc12)c54,T/C,"dose: 50.0 mg/kg/injection, schedule: Q01DX005 (ip), vehicle: Klucel + Tween-80",90 % of control
same,T/C,"dose: 100.0 mg/kg/injection, schedule: Q01DX005 (ip), vehicle: Klucel + Tween-80",99 % of control
same,T/C,"dose: 200.0 mg/kg/injection, schedule: Q01DX005 (ip), vehicle: Klucel + Tween-80",99 % of control
